biological target: T1, Steroid 17-alpha-hydroxylase/17,20 lyase (Homo sapiens, UniProt P05093); assay: Inhibition of human progesterone 17-alpha-hydroxylase.
T1 sequence (P05093 whole entry): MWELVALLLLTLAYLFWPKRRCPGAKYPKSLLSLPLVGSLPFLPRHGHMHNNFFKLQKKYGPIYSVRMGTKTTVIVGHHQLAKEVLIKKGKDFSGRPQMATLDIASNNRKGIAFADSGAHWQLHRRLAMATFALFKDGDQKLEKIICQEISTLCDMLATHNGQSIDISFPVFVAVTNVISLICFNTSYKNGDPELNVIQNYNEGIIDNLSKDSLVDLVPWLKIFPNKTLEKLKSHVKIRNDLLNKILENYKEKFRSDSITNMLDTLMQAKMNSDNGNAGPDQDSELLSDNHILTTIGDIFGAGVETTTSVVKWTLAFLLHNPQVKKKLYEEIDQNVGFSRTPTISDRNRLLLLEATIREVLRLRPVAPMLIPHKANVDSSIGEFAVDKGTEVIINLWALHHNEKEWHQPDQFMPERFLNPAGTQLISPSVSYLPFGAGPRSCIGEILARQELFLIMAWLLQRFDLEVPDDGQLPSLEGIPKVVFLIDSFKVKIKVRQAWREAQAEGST

Point of comparison: `C[C@]12CC[C@H](O)C[C@@H]1CC[C@@H]1[C@@H]2CC[C@]2(C)C(c3cccnc3)CC[C@@H]12` (stereo not given in full), IC50 5 nM. Against it:
- C[C@]12CC[C@H](O)C[C@@H]1CC[C@@H]1[C@@H]2CC[C@@]2(C)[C@H]1C[C@H]1O[C@]12c1cccnc1 — 52-fold higher, 260 nM
- C[C@]12CC[C@H](O)C[C@@H]1CC[C@@H]1[C@@H]2CC[C@]2(C)[C@@H](c3cccnc3)CC[C@@H]12 — 15-fold higher, 74 nM
- C[C@]12CCC(=O)C=C1CCC1C2CC[C@]2(C)C(c3cccnc3)=CCC12 (stereo not given in full) — 1.7-fold lower, 3 nM
- C[C@]12CCC3C(CC=C4C[C@@H](O)CC[C@@]43C)C1CCC2c1ccncc1 (single isomer, unassigned) — 5.4-fold higher, 27 nM
